The data set can be described thus: discoloration / colour of aqueous NHDC solution. The format is physicochemical. The conditions noted are these: over a period of time. An excerpt:
The preferred acidulants are weak organic C1 -C6 organic mono- or di-carboxylic acids.
The acidulant-like malic or citric acid is incorporated to lower the pH to less than 6.5, in order to remove the yellow color formed in aqueous solutions of NHDC-based compositions.

Structures are written as SMILES.

Regarding `COc1ccc(CCC(=O)c2c(O)cc(O[C@@H]3O[C@H](CO)[C@@H](O)[C@H](O)[C@H]3O[C@@H]3O[C@@H](C)[C@H](O)[C@@H](O)[C@H]3O)cc2O)cc1O` [NHDC, Neohesperidin dihydrochalcone], the “discoloration of aqueous NHDC solution” value was “yellow discoloration”.

The record behind these values is patent US4254155A, “Preparing neohesperidin dihydrochalcone sweetener composition” (Chimicasa GmbH, priority 1979, dated 1981).
